In patent US20030211942A1, “Aryl sulfonyl amino carbonyl triazole based selective herbicides” (priority 2000, published 2003):
Several values for one entry are separate records, joined by “and”; a condition that tells them apart may be missing. Equal values may be shown once.

Columns and labels:
Experiment in all cases: Post-emergence/greenhouse herbicidal test
Assay type in all cases: in vivo
Cassia tora = settings: post-emergence, about 3 weeks
Description: (§1) Procarbazone- and flucarbazone-sodium were used as 70 WG formulation. Fenoxaprop-P-ethyl was used in a mixture with mefenpyr-diethyl (75 g of mefenpyr-diethyl/l) as Ralon® Super 69 EW. Cinidon-ethyl and florasulam and iodosufuron in a mixture with mefenpyr-diethyl were used in the form of the finished formulations Lotus® 200 EC, Primus® 50 SC and Hussar® 5 WG (15% mefenpyr-diethyl), respectively. Amicarbazone was used as 70 WG formulation.
(§2) In pre- and post-emergence experiments, the spray liquor is usually admixed with a surfactant (Renex 36), at a concentration of 0.1%.
(§3) Test plants are grown under controlled conditions (temperature and light).
(§4) Following the spray application, the plant containers are kept in a greenhouse under constant light and temperature conditions.
(§5) After about 3 weeks, the degree of damage to the plants is rated in % damage in comparison to the development of the untreated control.
(§6) 0% =no damage (like untreated control)
(§7) 100% =total destruction/damage

Amaranthus retroflexus = settings: post-emergence, about 3 weeks
Description: as §1, §2, §3, §4, §5, §6, §7

Veronica persicaria = settings: post-emergence, about 3 weeks
Description: as §1, §2, §3, §4, §5, §6, §7

Alopecurus myosuroides = settings: post-emergence, about 3 weeks
Description: as §1, §2, §3, §4, §5, §6, §7

Echinochloa crus-galli = settings: post-emergence, about 3 weeks
Description: as §1, §2, §3, §4, §5, §6, §7

Lolium perenne = settings: post-emergence, about 3 weeks
Description: as §1, §2, §3, §4, §5, §6, §7

Viola arvensis = settings: post-emergence, about 3 weeks
Description: as §1, §2, §3, §4, §5, §6, §7

Galium aparine = settings: post-emergence, about 3 weeks
Description: as §1, §2, §3, §4, §5, §6, §7

Avena fatua = settings: post-emergence, about 3 weeks
Description: as §1, §2, §3, §4, §5, §6, §7

Polygonum convolvolus = test system: Polygonum convolvolus
Description: as §1, §2, §3, §4, §5, §6, §7

Matricaria inodora = settings: 2 g of ai/ha, post-emergence, about 3 weeks
Description: as §1, §2, §3, §4, §5, §6, §7

Bromus secalinus = test system: Bromus secalinus
Description: as §1, §2, §3, §4, §5, §6, §7

Xanthium strumarium = settings: post-emergence, about 3 weeks
Description: as §1, §2, §3, §4, §5, §6, §7

Abutilon theophrasti = settings: post-emergence, about 3 weeks
Description: as §1, §2, §3, §4, §5, §6, §7

Digitaria sanguinalis = settings: post-emergence, about 3 weeks
Description: as §1, §2, §3, §4, §5, §6, §7

Setaria viridis = test system: Setaria viridis
Ipomoea hederacea = settings: post-emergence, about 3 weeks
Description: as §1, §2, §3, §4, §5, §6, §7

Stellaria media = settings: post-emergence, about 3 weeks
Description: as §1, §2, §3, §4, §5, §6, §7

Cyperus esculentus = settings: post-emergence, about 3 weeks
Description: as §1, §2, §3, §4, §5, §6, §7

Eriochloa villosa = settings: 15 g of ai/ha, post-emergence, about 3 weeks
Description: as §1, §2, §3, §4, §5, §6, §7

Solanum nigrum = settings: 30 g of ai/ha, post-emergence, about 3 weeks
Description: as §1, §2, §3, §4, §5, §6, §7

[1] = 15 g of ai/ha, post-emergence, about 3 weeks
[2] = 30 g of ai/ha, post-emergence, about 3 weeks
[3] = 60 g of ai/ha, post-emergence, about 3 weeks

## COc1ncc(F)c2nc(S(=O)(=O)Nc3c(F)cccc3F)nn12 [Florasulam, N-(2,6-difluoro-phenyl)-8-fluoro-5-methoxy-[1,2,4]-triazolo-[1,5-c]-pyrimidine-2-sulphonamide]
Cassia tora; 8 g of ai/ha
  Cassia tora observed: 90%
Cassia tora; 15 g of ai/ha
  Cassia tora observed: 95%
Amaranthus retroflexus; 2 g of ai/ha
  Amaranthus retroflexus observed: 70%
Amaranthus retroflexus; 4 g of ai/ha
  Amaranthus retroflexus observed: 70%
Veronica persicaria; 2 g of ai/ha
  Veronica persicaria observed: 0%
Veronica persicaria; 4 g of ai/ha
  Veronica persicaria observed: 0%
Alopecurus myosuroides; 2 g of ai/ha
  Alopecurus myosuroides observed: 0%
Alopecurus myosuroides; 4 g of ai/ha
  Alopecurus myosuroides observed: 0%
Echinochloa crus-galli; 2 g of ai/ha
  Echinochloa crus-galli observed: 10%
Echinochloa crus-galli; 4 g of ai/ha
  Echinochloa crus-galli observed: 40%
Lolium perenne; 2 g of ai/ha
  Lolium perenne observed: 0%
Lolium perenne; 4 g of ai/ha
  Lolium perenne observed: 0%
Lolium perenne; 8 g of ai/ha
  Lolium perenne observed: 20%
Lolium perenne; 15 g of ai/ha
  Lolium perenne observed: 30%
Viola arvensis; 2 g of ai/ha
  Viola arvensis observed: 0%
Viola arvensis; 4 g of ai/ha
  Viola arvensis observed: 0%
Viola arvensis; 8 g of ai/ha
  Viola arvensis observed: 70%
Galium aparine; 2 g of ai/ha
  Galium aparine observed: 50%
Galium aparine; 4 g of ai/ha
  Galium aparine observed: 50%
Avena fatua; 2 g of ai/ha
  Avena fatua observed: 0%
Avena fatua; 4 g of ai/ha
  Avena fatua observed: 10%
Avena fatua; 8 g of ai/ha
  Avena fatua observed: 30%
Avena fatua; 15 g of ai/ha
  Avena fatua observed: 50%
Polygonum convolvolus; 8 g of ai/ha, post-emergence, about 3 weeks
  Polygonum convolvolus observed: 95%
Polygonum convolvolus; [1]
  Polygonum convolvolus observed: 95%
Matricaria inodora
  Matricaria inodora observed: 70%
Bromus secalinus; 2 g of ai/ha, post-emergence, about 3 weeks
  Bromus secalinus observed: 0%
Bromus secalinus; 4 g of ai/ha, post-emergence, about 3 weeks
  Bromus secalinus observed: 0%
Xanthium strumarium; 2 g of ai/ha
  Xanthium strumarium observed: 40%
Xanthium strumarium; 4 g of ai/ha
  Xanthium strumarium observed: 50%
Abutilon theophrasti; 2 g of ai/ha
  Abutilon theophrasti observed: 20%
Abutilon theophrasti; 4 g of ai/ha
  Abutilon theophrasti observed: 30%
Digitaria sanguinalis; 2 g of ai/ha
  Digitaria sanguinalis observed: 0%
Digitaria sanguinalis; 4 g of ai/ha
  Digitaria sanguinalis observed: 0%

## CCCOc1nn(C(=O)NS(=O)(=O)c2ccccc2C(=O)OC)c(=O)n1C [Procarbazone-sodium, 2-(2-methoxycarbonyl-phenylsulphonylaminocarbonyl)-4-methyl-5-n-propoxy-2,4-dihydro-3H-1,2,4-triazol-3-one]
Setaria viridis; application rate 15 g ai/ha
  Setaria viridis observed: 0
Setaria viridis; application rate 30 g ai/ha
  Setaria viridis observed: 0
Setaria viridis; application rate 60 g ai/ha
  Setaria viridis observed: 20
Cassia tora; 15 g of ai/ha
  Cassia tora observed: 50%
Cassia tora; 60 g of ai/ha
  Cassia tora observed: 30% and 50%
Amaranthus retroflexus; 15 g of ai/ha
  Amaranthus retroflexus observed: 80% and 98%
Amaranthus retroflexus; 30 g of ai/ha
  Amaranthus retroflexus observed: 90% and 98%
Amaranthus retroflexus; 60 g of ai/ha
  Amaranthus retroflexus observed: 98%
Ipomoea hederacea; 15 g of ai/ha
  Ipomoea hederacea observed: 60%
Ipomoea hederacea; 30 g of ai/ha
  Ipomoea hederacea observed: 70%
Ipomoea hederacea; 60 g of ai/ha
  Ipomoea hederacea observed: 70%
Stellaria media; 15 g of ai/ha
  Stellaria media observed: 50%
Stellaria media; 30 g of ai/ha
  Stellaria media observed: 60%
Stellaria media; 60 g of ai/ha
  Stellaria media observed: 70%
Cyperus esculentus; 15 g of ai/ha
  Cyperus esculentus observed: 70%
Cyperus esculentus; 30 g of ai/ha
  Cyperus esculentus observed: 80%
Alopecurus myosuroides; 15 g of ai/ha
  Alopecurus myosuroides observed: 60% and 80%
Alopecurus myosuroides; 30 g of ai/ha
  Alopecurus myosuroides observed: 70% and 80%
Alopecurus myosuroides; 60 g of ai/ha
  Alopecurus myosuroides observed: 70% and 90%
Echinochloa crus-galli; 30 g of ai/ha
  Echinochloa crus-galli observed: 90%
Echinochloa crus-galli; 60 g of ai/ha
  Echinochloa crus-galli observed: 90%
Lolium perenne; 15 g of ai/ha
  Lolium perenne observed: 0%
Lolium perenne; 30 g of ai/ha
  Lolium perenne observed: 30% and 20%
Lolium perenne; 60 g of ai/ha
  Lolium perenne observed: 50%
Viola arvensis; 30 g of ai/ha
  Viola arvensis observed: 50% and 70%
Viola arvensis; 60 g of ai/ha
  Viola arvensis observed: 80%
Galium aparine; 15 g of ai/ha
  Galium aparine observed: 20%
Galium aparine; 30 g of ai/ha
  Galium aparine observed: 30%
Galium aparine; 60 g of ai/ha
  Galium aparine observed: 40%
Avena fatua; 15 g of ai/ha
  Avena fatua observed: 70% and 50% and 80%
Avena fatua; 30 g of ai/ha
  Avena fatua observed: 90% and 50%
Avena fatua; 60 g of ai/ha
  Avena fatua observed: 60%
Polygonum convolvolus; [2]
  Polygonum convolvolus observed: 0%
Polygonum convolvolus; [3]
  Polygonum convolvolus observed: 0%
Polygonum convolvolus; application rate 15 g ai/ha
  Polygonum convolvolus observed: 0
Polygonum convolvolus; application rate 30 g ai/ha
  Polygonum convolvolus observed: 0
Polygonum convolvolus; application rate 60 g ai/ha
  Polygonum convolvolus observed: 0
Bromus secalinus; [1]
  Bromus secalinus observed: 80% and 70%
Bromus secalinus; [2]
  Bromus secalinus observed: 80%
Bromus secalinus; [3]
  Bromus secalinus observed: 90%
Bromus secalinus; application rate 15 g ai/ha
  Bromus secalinus observed: 90
Bromus secalinus; application rate 30 g ai/ha
  Bromus secalinus observed: 90
Eriochloa villosa
  Eriochloa villosa observed: 0%
Xanthium strumarium; 15 g of ai/ha
  Xanthium strumarium observed: 60%
Xanthium strumarium; 30 g of ai/ha
  Xanthium strumarium observed: 70% and 60%
Xanthium strumarium; 60 g of ai/ha
  Xanthium strumarium observed: 60%
Abutilon theophrasti; 60 g of ai/ha
  Abutilon theophrasti observed: 60%
Solanum nigrum
  Solanum nigrum observed: 70%
